Source: PubChem BioAssay (NCI)
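96-well plates; 48 h exposure; 5 concentrations. Endpoints by linear interpolation between flanking doses. Not reached: highest tested concentration assigned. Here, GI50 denotes the concentration required for 50% inhibition of growth. TGI: concentration producing complete growth inhibition.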

How the values were obtained:
Assay in all cases: NCI anticancer screen, dose series, 48 h
[1] = test system: SNB-19 CNS
[2] = test system: HCC-2998 colon
[3] = test system: SN12C renal
[4] = test system: HCT-116 colon
[5] = test system: HCT-15 colon
[6] = test system: TK-10 renal
[7] = test system: OVCAR-8 ovarian
[8] = test system: MCF7 breast
[9] = test system: UACC-257 melanoma
[10] = test system: PC-3 prostate
[11] = test system: HOP-62 NSCLC
[12] = test system: DU-145 prostate
[13] = test system: NCI-H23 lung
[14] = test system: MALME-3M melanoma
[15] = test system: U251 CNS
[16] = test system: K-562 leukemia
[17] = test system: MDA-MB-435
[18] = test system: SF-539 CNS
[19] = test system: SW-620 colon
[20] = test system: M14 melanoma
[21] = test system: HOP-92 NSCLC
[22] = test system: SF-295 CNS
[23] = test system: NCI-H522 lung
[24] = test system: HT29 colon
[25] = test system: T-47D breast
[26] = test system: SK-MEL-5 melanoma
[27] = test system: EKVX NSCLC
[28] = test system: SF-268 CNS
[29] = test system: OVCAR-5 ovarian
[30] = test system: NCI/ADR-RES ovarian
[31] = test system: KM12 colon
[32] = test system: ACHN renal
[33] = test system: RPMI-8226 leukemia
[34] = test system: SK-MEL-28 melanoma
[35] = test system: CCRF-CEM leukemia
[36] = test system: MDA-MB-231 breast
[37] = test system: OVCAR-4 ovarian
[38] = test system: SNB-75 CNS
[39] = test system: CAKI-1 renal
[40] = test system: A549 NSCLC
[41] = test system: SK-OV-3 ovarian
[42] = test system: NCI-H226 lung
[43] = test system: NCI-H460 lung
[44] = test system: IGROV1 ovarian
[45] = test system: MOLT-4 leukemia
[46] = test system: BT-549 breast
[47] = test system: 786-0 renal
[48] = test system: UO-31 renal
[49] = test system: HS 578T breast
[50] = test system: SK-MEL-2 melanoma
[51] = test system: UACC-62 melanoma
[52] = test system: COLO 205 colon
[53] = test system: A498 renal
[54] = test system: OVCAR-3 ovarian
[55] = test system: HL-60(TB) leukemia
[56] = test system: RXF 393 renal
[57] = test system: SR leukemia
[58] = test system: LOX IMVI melanoma

Structure (SMILES): CO/N=C(/C)c1cccc(Nc2cc(-n3nnc4ccccc43)nc3ccccc23)c1
- GI50 [1]: 30.2 µM
- TGI [1]: > 100 µM
- GI50 [2]: 25.7 µM
- TGI [2]: > 100 µM
- GI50 [3]: 32.8 µM
- TGI [3]: > 100 µM
- GI50 [4]: 27 µM
- TGI [4]: > 100 µM
- GI50 [5]: 31.8 µM
- TGI [5]: > 100 µM
- GI50 [6]: 26 µM
- TGI [6]: > 100 µM
- GI50 [7]: 87.1 µM
- TGI [7]: > 100 µM
- GI50 [8]: 31.3 µM
- TGI [8]: > 100 µM
- GI50 [9]: 87.5 µM
- TGI [9]: > 100 µM
- GI50 [10]: 8.64 µM
- TGI [10]: 61.9 µM
- GI50 [11]: 19.6 µM
- TGI [11]: 53.6 µM
- GI50 [12]: 40.4 µM
- TGI [12]: > 100 µM
- GI50 [13]: 33.6 µM
- TGI [13]: > 100 µM
- GI50 [14]: 16.1 µM
- TGI [14]: 58 µM
- GI50 [15]: > 100 µM
- TGI [15]: > 100 µM
- GI50 [16]: 15.2 µM
- TGI [16]: > 100 µM
- GI50 [17]: 14.8 µM
- TGI [17]: 39.4 µM
- GI50 [18]: 45.5 µM
- TGI [18]: > 100 µM
- GI50 [19]: 34.1 µM
- TGI [19]: > 100 µM
- GI50 [20]: 37.4 µM
- TGI [20]: > 100 µM
- GI50 [21]: 3.98 µM
- TGI [21]: 37.4 µM
- GI50 [22]: 15 µM
- TGI [22]: 64.1 µM
- GI50 [23]: > 100 µM
- TGI [23]: > 100 µM
- GI50 [24]: 11.8 µM
- TGI [24]: > 100 µM
- GI50 [25]: > 100 µM
- TGI [25]: > 100 µM
- GI50 [26]: 14.4 µM
- TGI [26]: 32.5 µM
- GI50 [27]: 27.3 µM
- TGI [27]: 86.2 µM
- GI50 [28]: 30.5 µM
- TGI [28]: > 100 µM
- GI50 [29]: 41.7 µM
- TGI [29]: > 100 µM
- GI50 [30]: 61.9 µM
- TGI [30]: > 100 µM
- TGI [31]: 5.78 µM
- GI50 [32]: 42.3 µM
- TGI [32]: > 100 µM
- GI50 [33]: 15.1 µM
- TGI [33]: > 100 µM
- GI50 [34]: > 100 µM
- TGI [34]: > 100 µM
- GI50 [35]: 20.7 µM
- TGI [35]: > 100 µM
- GI50 [36]: 7.55 µM
- TGI [36]: 60.2 µM
- GI50 [37]: 65.6 µM
- TGI [37]: > 100 µM
- GI50 [38]: > 100 µM
- TGI [38]: > 100 µM
- GI50 [39]: 22.5 µM
- TGI [39]: > 100 µM
- GI50 [40]: 38.7 µM
- TGI [40]: > 100 µM
- GI50 [41]: > 100 µM
- TGI [41]: > 100 µM
- GI50 [42]: 27.3 µM
- TGI [42]: > 100 µM
- GI50 [43]: 28 µM
- TGI [43]: > 100 µM
- GI50 [44]: > 100 µM
- TGI [44]: > 100 µM
- GI50 [45]: 7.18 µM
- TGI [45]: > 100 µM
- GI50 [46]: 63.2 µM
- TGI [46]: > 100 µM
- GI50 [47]: 45.5 µM
- TGI [47]: > 100 µM
- GI50 [48]: > 100 µM
- TGI [48]: > 100 µM
- GI50 [49]: 42.8 µM
- TGI [49]: > 100 µM
- GI50 [50]: > 100 µM
- TGI [50]: > 100 µM
- GI50 [51]: 25.2 µM
- TGI [51]: > 100 µM
- GI50 [52]: > 100 µM
- TGI [52]: > 100 µM

Structure (SMILES): O=[N+]([O-])C[C@@]12O[C@]3(O)C4C5CC(C6C5C3C61)C42 (stereo not given in full)
- TGI [1]: > 100 µM
- TGI [53]: > 100 µM
- TGI [3]: > 100 µM
- TGI [4]: > 100 µM
- TGI [5]: > 100 µM
- TGI [6]: > 100 µM
- TGI [7]: > 100 µM
- TGI [8]: > 100 µM
- TGI [9]: > 100 µM
- TGI [10]: > 100 µM
- TGI [11]: > 100 µM
- TGI [12]: > 100 µM
- TGI [13]: > 100 µM
- TGI [14]: > 100 µM
- TGI [15]: > 100 µM
- TGI [16]: > 100 µM
- TGI [54]: > 100 µM
- TGI [55]: > 100 µM
- TGI [17]: > 100 µM
- TGI [18]: > 100 µM
- TGI [19]: > 100 µM
- TGI [20]: > 100 µM
- TGI [21]: > 100 µM
- TGI [22]: > 100 µM
- TGI [23]: > 100 µM
- TGI [24]: > 100 µM
- TGI [25]: > 100 µM
- TGI [26]: > 100 µM
- TGI [27]: > 100 µM
- TGI [28]: > 100 µM
- TGI [29]: > 100 µM
- TGI [30]: > 100 µM
- TGI [31]: > 100 µM
- TGI [32]: > 100 µM
- TGI [33]: > 100 µM
- TGI [56]: > 100 µM
- TGI [34]: > 100 µM
- TGI [57]: > 100 µM
- TGI [35]: > 100 µM
- TGI [36]: > 100 µM
- TGI [58]: > 100 µM
- TGI [37]: > 100 µM
- TGI [38]: > 100 µM
- TGI [39]: > 100 µM
- TGI [40]: > 100 µM
- TGI [41]: > 100 µM
- TGI [42]: > 100 µM
- TGI [43]: > 100 µM
- TGI [44]: > 100 µM
- TGI [45]: > 100 µM
- TGI [46]: > 100 µM
- TGI [47]: > 100 µM
- TGI [48]: > 100 µM
- TGI [49]: > 100 µM
- TGI [50]: > 100 µM
- TGI [51]: > 100 µM
- TGI [52]: > 100 µM
